Data taken from patent US8129355B2, “Ketone ligands for modulating the expression of exogenous genes via an ecdysone receptor complex” (priority 2002, dated 2012).
Where two headings read alike, the source gives them in different places.

Columns and labels:
[1] = target: T1, GAL4 DBD-CfEcR(DEF)/VP16AD-MmRXRE (Choristoneura fumiferana, UniProt O77240); assay: cell-based; settings: for 13B3 Rel Max FI: maximum fold induction at any concentration relative to that of GS-E ligand; for fold induction at 33 µM: CHO, read-out: Fold Induction Average, 13B3 Assay (33 μM)
T1 sequence (O77240 1-513): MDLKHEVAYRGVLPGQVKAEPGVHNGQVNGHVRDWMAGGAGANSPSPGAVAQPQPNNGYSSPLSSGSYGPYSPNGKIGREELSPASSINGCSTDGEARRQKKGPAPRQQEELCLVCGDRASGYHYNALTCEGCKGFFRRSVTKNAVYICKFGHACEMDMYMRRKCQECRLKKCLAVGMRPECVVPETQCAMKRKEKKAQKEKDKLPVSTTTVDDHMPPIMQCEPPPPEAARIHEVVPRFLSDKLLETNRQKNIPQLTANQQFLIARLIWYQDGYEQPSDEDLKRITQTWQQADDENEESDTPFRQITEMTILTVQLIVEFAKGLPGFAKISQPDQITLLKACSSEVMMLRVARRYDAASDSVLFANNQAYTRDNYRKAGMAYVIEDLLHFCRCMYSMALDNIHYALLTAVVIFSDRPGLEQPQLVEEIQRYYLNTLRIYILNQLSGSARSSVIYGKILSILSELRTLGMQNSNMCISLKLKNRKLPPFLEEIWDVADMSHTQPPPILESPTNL
Source text: GAL4 DBD-CfEcR(DEF)/VP16AD-MmRXRE: The wild-type D, E, and F domains from spruce budworm Choristoneura fumiferana EcR (“CfEcR-DEF”; SEQ ID NO: 1) were fused to a GAL4 DNA binding domain (“Gal4 DBD1-147”; nucleotides 31 to 471 of SEQ ID NO: 2) and placed under the control of the SV40e promoter of pM vector (PT3119-5, Clontech, Palo Alto, Calif.). The D and E domains from Mus Musculus RXR (“MmRXR-DE”; SEQ ID NO: 10) were fused to the transactivation domain from VP16 (“VP16AD”; SEQ ID NO: 5) and placed under the control of the SV40e promoter of the pVP16 vector (PT3127-5, Clontech, Palo Alto, Calif.).
CHO cells were transienty transfected with transcription cassettes for GAL4 DBD-CfEcR(DEF) and for VP16AD-MmRXRE controlled by SV40e promoters. Stably transfected cells were selected using Hygromycin. Individually isolated CHO cell clones were transiently transfected with a GAL4 RE-luciferase reporter (pMR-Luc, Stratagene, La Jolla, Calif.). The 13B3 clone was selected using Zeocin.
Cells were trypsinized and diluted to a concentration of 2.5×10^4 cells mL. 100 μL of cell suspension was placed in each well of a 96 well plate and incubated at 37° C. under 5% CO2 for 24 h. Ligand stock solutions were prepared in DMSO and diluted 300 fold for all treatments. Dose response testing consisted of 8 concentrations ranging from 33 μM to 0.01 μM.
Luciferase reporter gene expression was measured 48 h after cell treatment using Bright-Glo™ Luciferase Assay System from Promega (E2650). Luminescence was detected at room temperature using a Dynex MLX microtiter plate luminometer.
Fold inductions were calculated from single dose testing by dividing relative light units (RLU) in ligand treated cells by RLU in DMSO treated cells. BC50s were calculated from dose response data using a three-parameter logistic model.

[2] = target: T2, Bombyx mori EcR (VP16 fusion, switch construct CVBE) with 6XEcRE LacZ reporter (Bombyx mori, UniProt P49881); assay: Z3 assay: β-galactosidase (LacZ) reporter gene fold induction in stably transformed human 293 kidney cells (clone Z3); assay type: cell-based
T2 construct: expressed in transfected cells; host or cells: Human 293 kidney (HEK-293) cells, retrovirally infected, clone Z3
T2 sequence (P49881 86-606 limits assumed): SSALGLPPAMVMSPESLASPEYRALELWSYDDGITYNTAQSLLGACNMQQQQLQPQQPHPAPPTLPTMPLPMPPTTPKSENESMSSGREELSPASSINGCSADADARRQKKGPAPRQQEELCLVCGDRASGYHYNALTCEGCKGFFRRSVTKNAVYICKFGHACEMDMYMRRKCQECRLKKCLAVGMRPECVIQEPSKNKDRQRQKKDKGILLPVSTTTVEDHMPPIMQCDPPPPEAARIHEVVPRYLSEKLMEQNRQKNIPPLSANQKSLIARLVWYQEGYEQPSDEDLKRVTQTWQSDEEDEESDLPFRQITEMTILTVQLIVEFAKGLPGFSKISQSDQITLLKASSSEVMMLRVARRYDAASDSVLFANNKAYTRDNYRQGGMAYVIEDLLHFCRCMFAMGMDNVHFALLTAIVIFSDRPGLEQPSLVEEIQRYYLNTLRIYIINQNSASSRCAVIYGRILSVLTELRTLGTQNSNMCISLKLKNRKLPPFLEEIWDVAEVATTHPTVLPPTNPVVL
T2 sequence (P19793 1-462 partner): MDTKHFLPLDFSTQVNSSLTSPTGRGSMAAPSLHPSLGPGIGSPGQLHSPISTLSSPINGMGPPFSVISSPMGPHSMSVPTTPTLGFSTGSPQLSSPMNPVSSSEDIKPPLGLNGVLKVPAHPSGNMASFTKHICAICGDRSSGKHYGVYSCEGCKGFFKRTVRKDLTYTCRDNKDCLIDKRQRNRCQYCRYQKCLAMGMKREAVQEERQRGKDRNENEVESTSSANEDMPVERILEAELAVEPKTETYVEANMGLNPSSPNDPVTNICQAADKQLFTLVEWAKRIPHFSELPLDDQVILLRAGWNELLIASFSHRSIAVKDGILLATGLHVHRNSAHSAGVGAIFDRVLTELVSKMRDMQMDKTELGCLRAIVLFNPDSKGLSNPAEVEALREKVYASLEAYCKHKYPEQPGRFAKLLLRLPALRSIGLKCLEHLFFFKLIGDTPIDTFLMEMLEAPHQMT
Source text: Dr. F. Gage provided a population of stably transformed cells containing CVBE and 6XEcRE as described in Suhr, S. T., Gil, E. B., Senut M. C., Gage, F. H. (1998) Proc. Natl. Acad. Sci. USA 95, 7999-804. Human 293 kidney cells, also referred to as HEK-293 cells, were sequentially infected with retroviral vectors encoding first the switch construct CVBE, and subsequently the reporter construct 6XEcRE Lac Z. The switch construct contained the coding sequence for amino acids 26-546 from Bombyx mori EcR (BE) (Iatrou) inserted in frame and downstream of the VP16 transactivation domain (VBE). A synthetic ATG start codon was placed under the control of cytomegalovirus (CVBE) immediate early promoter and flanked by long terminal repeats (LTR). The reporter construct contained six copies of the ecdysone response element (EcRE) binding site placed upstream of LacZ and flanked on both sides with LTR sequences (6XEcRE).
Dilution cloning was used to isolate individual clones. Clones were selected using 450 ug/mL G418 and 100 ng/mL puromycin. Individual clones were evaluated based on their response in the presence and absence of test ligands. Clone Z3 was selected for screening and SAR purposes.
Human 293 kidney cells stably transformed with CVBE and 6XEcRE lack were maintained in Minimum Essential Medium (Mediates, 10-010-CV) containing 10% FBS (Life Technologies, 26140-087), […] G418 (Mediates, 30-234-CR), and […] (Sigma, P-7255), at 37° C. in an atmosphere containing 5% CO2 and were subculture when they reached 75% confluence.
Z3 cells were seeded into 96-well tissue culture plates at a concentration of 2.5×10^3 cells per well and incubated at 37° C. in 5% CO2 for twenty-four hours. Stock solutions of ligands were prepared in DMSO. Ligand stock solutions were diluted 100 fold in media and 50 μL of this diluted ligand solution (33 μM) was added to cells. The final concentration of DMSO was maintained at […] in both controls and treatments.
Reporter gene expression was evaluated 48 hours after treatment of cells, β-galactosidase activity was measured using Gal Screen™ bioluminescent reporter gene assay system from Tropix (GSY1000).
Flanking both constructs are long terminal repeats, G418 and puromycin are selectable markers, CMV is the cytomegalovirus promoter, VBE is coding sequence for amino acids 26-546 from Bombyx mori EcR inserted downstream of the VP16 transactivation domain, 6×EcRE is six copies of the ecdysone response element, lacZ encodes for the reporter enzyme β-galactosidase. Suhr, S. T., Gil, E. B., Senut M. C., Gage, F. H. (1998) Proc. Natl. Acad. Sci. USA 95, 7999-804. Swevers, L., Drevet, J. R., Lunke, M. D., Iatrou, K. (1995) Insect Biochem. Mol. Biol. 25, 857-866.

[3] = average; dose response, three-parameter logistic model; read-out: Z3 LC50
[4] = maximum fold induction at any concentration relative to that of GS-E ligand
[5] = single dose 33 μM; ligand treated / DMSO treated cells
[6] = read-out: Fold Induction Average, Z3 Assay (33 μM)
[7] = read-out: Z3 LC50; average; dose response, three-parameter logistic model

SMILES | Fold Induction Average, Z3 Assay (33 μM) [2, 5] | Fold Induction Average, 13B3 Assay (33 μM) [1] | also measured
COc1cccc(C(=O)NC2(C(=O)c3ccccc3)CCCC2)c1C [Example 1] | 71 |  | 13B3 Rel Max FI [1]: 0.00; EC50 ([1]; read-out: 13B3 EC50, average, dose response, three-parameter logistic model): > 33 µM; Fold Induction Average, 13B3 Assay (33 μM) ([1]; single dose 33 μM, RLU ligand treated / RLU DMSO treated cells): 3; CC50 [2, 3]: 2.67 µM; Z3 Rel Max FI [2, 4]: 0.14
COc1cccc(C(=O)NC2(C(=O)c3cccc(C)c3)CCCC2)c1C [Example 2] |  |  | EC50 [1]: > 33 µM; fold induction at 33 µM [1]: 2620; 13B3 Rel Max FI [1]: 0.24; Z3 Rel Max FI [2, 4]: 0.46; fold induction at 33 µM [2, 6]: 786; CC50 [2, 7]: 3.38 µM
CCc1ccc(C(=O)NC2(C(=O)c3ccccc3)CCCC2)cc1 [Example 3] |  |  | EC50 [1]: > 33 µM; 13B3 Rel Max FI [1]: 0.00
COc1cccc(C(=O)C2(NC(=O)c3cccc(OC)c3C)CCCC2)c1 [Example 5] |  |  | EC50 [1]: > 33 µM; 13B3 Rel Max FI [1]: 0.02
COc1cccc(C(=O)NC2(C(=O)c3cccc(C)c3)CCC2)c1C [Example 6] |  |  | EC50 [1]: > 33 µM; fold induction at 33 µM [1]: 1; 13B3 Rel Max FI [1]: 0.00; Z3 Rel Max FI [2, 4]: 0.05; fold induction at 33 µM [2, 6]: 82; CC50 [2, 7]: 10.7 µM
COc1cccc(C(=O)NC(C)(Cc2ccccc2)C(=O)c2cccc(C)c2)c1C (stereo not drawn) [Example 8] | 15 | 2 | 
COc1cccc(C(=O)NC2(C(=O)c3cccc(C)c3)CC2)c1C [Example 9] | 12 | 0 | 
COc1cccc(C(=O)NC(C)(Cc2ccccc2)C(=O)c2ccc(C)cc2)c1C (stereo not drawn) [Example 16] | 10 | 0 | 
COc1cccc(C(=O)NC2(C(=O)c3ccc(F)c(C)c3)CC2)c1C [Example 19] | 6 | 0 | 
Cc1c(C(=O)NC2(C(=O)c3ccccc3)CCCC2)ccc2c1OCO2 [Example 23] | 32 | 2 | 
COc1cccc(C(=O)NC2(C(=O)c3ccc(C)cc3)CC2)c1C [Example 24] | 11 | 87 | 
COc1cccc(C(=O)NC2(C(=O)c3cccc(C)c3)CCC3(CC2)OCCO3)c1C [Example 35] | 9 | 2 | 
CCC(CC)(NC(=O)c1cccc(OC)c1C)C(=O)c1ccccc1C [Example 36] | 4 | 0 | 
COc1cccc(C(=O)NC2(C(=O)c3ccccc3C)CCCC2)c1C [Example 39] | 30 | 24 | 
COc1ccc(C(=O)C2(NC(=O)c3cccc(OC)c3C)CCCC2)cc1 [Example 41] | 4 | 2 | 
COc1cccc(C(=O)NC2(C(=O)c3ccc4c(c3)OCO4)CCCC2)c1C [Example 43] | 3 | 2 | 
COc1cccc(C(=O)NC2(C(=O)c3ccc4c(c3)OCO4)CCCCC2)c1C [Example 47] | 21 | 3 | 
COc1cccc(C(=O)NC(C)(CC(C)C)C(=O)c2ccc(F)c(C)c2)c1C (stereo not drawn) [Example 54] | 41 | 0 | 
COc1cccc(C(=O)NC(C(=O)c2cccc(C)c2)(c2ccccc2)C(C)C)c1C (stereo not drawn) [Example 57] | 8 | 0 | 
CCC(CC)(NC(=O)c1cccc(OC)c1C)C(=O)c1ccc(OC)cc1 [Example 58] | 4 | 4 | 
CCC(CC)(NC(=O)c1cccc(OC)c1C)C(=O)c1ccc2c(c1)OCO2 [Example 59] | 2 | 0 | 
Cc1nc2ncc(C(=O)NC3(C(=O)c4ccccc4)CCCC3)c(C)n2n1 [Example 103] |  | 0 | 
CCc1ccc(C(=O)NC2(C(=O)c3cc(C)cc(C)c3)CCCCC2)cc1 [Example 175] |  |  | CC50 [2, 3]: 1.51 µM; Z3 Rel Max FI [2, 4]: 0.63
